What follows are compounds tested against PKC θ (Homo sapiens, UniProt Q04759) (assay: PKC θ enzyme inhibition test (TR-FRET)). Conditions: 1 μM test compound, well without enzyme = 100% inhibition.
Format: biochemical
Procedure: PKC θ enzyme inhibitory activities of test compounds were measured by TR-FRET method. First, a test compound diluted with assay buffer (20 mM Tris-HCl (pH 7.5), 5 mM MgAcetate, 0.1 mM CaCl2, 1 mM DTT, 0.01% Tween20, 0.05% BSA, 10% PKC Activator (Millipore)) was added to 384-well plate at 2 μL each. Then, a solution diluted with assay buffer to […] of PKC θ and 1.2 μM of a fluorescence-labeled peptide substrate (Fluorescein-PKC Substrate, Life Technologies) was added by 2 μL. Then, enzyme reaction was started by adding 2 μL each of ATP solution prepared with assay buffer to 60 μM. After the reaction at room temperature for 1 hr, TR-FRET Dilution Buffer (Life Technologies) prepared to 20 mM EDTA, 0.6 nM terbium-labeled anti-phosphoserine antibody (Life Technologies) was added by 6 μL. After standing at room temperature for 1 hr, fluorescence intensity (excitation wavelength 340 nm, fluorescence wavelength 520 nm, delay time 100 microseconds) was measured by a plate reader, Envision (PerkinElmer). The inhibitory activity of each compound was calculated as relative activity value where fluorescence intensity of a well without enzyme is considered as 100% inhibition.

PKC θ, sequence (Q04759 whole entry): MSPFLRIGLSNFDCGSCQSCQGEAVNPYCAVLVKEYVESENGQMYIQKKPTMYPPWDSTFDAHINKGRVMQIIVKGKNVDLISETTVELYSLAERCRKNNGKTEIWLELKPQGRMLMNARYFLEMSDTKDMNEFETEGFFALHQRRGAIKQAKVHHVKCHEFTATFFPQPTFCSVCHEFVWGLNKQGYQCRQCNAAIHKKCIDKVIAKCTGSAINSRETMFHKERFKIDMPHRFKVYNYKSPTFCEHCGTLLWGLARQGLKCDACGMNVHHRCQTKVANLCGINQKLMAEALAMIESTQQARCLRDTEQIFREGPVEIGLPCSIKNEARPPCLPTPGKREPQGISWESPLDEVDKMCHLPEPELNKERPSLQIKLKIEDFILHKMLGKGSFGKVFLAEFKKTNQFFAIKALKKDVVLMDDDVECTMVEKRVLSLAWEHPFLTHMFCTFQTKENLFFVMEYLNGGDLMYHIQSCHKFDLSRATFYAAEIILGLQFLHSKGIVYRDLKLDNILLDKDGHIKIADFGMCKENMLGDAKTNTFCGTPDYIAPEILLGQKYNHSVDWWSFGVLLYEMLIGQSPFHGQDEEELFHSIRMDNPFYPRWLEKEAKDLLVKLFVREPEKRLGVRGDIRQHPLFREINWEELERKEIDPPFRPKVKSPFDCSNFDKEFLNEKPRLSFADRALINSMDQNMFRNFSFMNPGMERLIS

| SMILES | PKC θ inhibitory activity (%, 1 μM) |
| --- | --- |
| CCOc1ccnc2[nH]c(=O)n(-c3ccc4ncc(CC)n4n3)c12 [Example 12, 7-ethoxy-1-(3-ethylimidazo[1,2b]pyridazin-6-yl)-1,3-dihydro-2H-imidazo[4,5-b]pyridin-2-one] | 91% |

Same assay, conditions: 1 μM test compound, well without enzyme = 100% inhibition, read-out: PKC θ inhibitory activity (%, 1 μM)

| SMILES | inhibition at 1 µM |
| --- | --- |
| CCOc1ccnc2[nH]c(=O)n(-c3ccc4ncn(C)c4c3)c12 [Example 7, 7-ethoxy-1-(1-methyl-1H-benzimidazol-6-yl)-1,3-dihydro-2H-imidazo[4,5-b]pyridin-2-one] | 100% |
| CCOc1ccnc2[nH]c(=O)n(-c3ccc4ncc(CC)n4c3)c12 [Example 11, 7-ethoxy-1-(3-ethylimidazo[1,2-a]pyridin-6-yl)-1,3-dihydro-2H-imidazo[4,5-b]pyridin-2-one] | 96% |
| CCOc1ccnc2[nH]c(=O)n(-c3ccc4ncn(C)c4n3)c12 [Example 13, 7-ethoxy-3′-methyl-3′H-1,5′-biimidazo[4,5-b]pyridin-2(3H)-one] | 90% |
| CCOc1ccnc2[nH]c(=O)n(-c3ccc4occ(C)c4c3)c12 [Example 15, 7-ethoxy-1-(3-methyl-1-benzo-furan-5-yl)-1,3-dihydro-2H-imidazo[4,5-b]pyridin-2-one] | 99% |
| CCOc1ccnc2[nH]c(=O)n(-c3ccn4ncc(CC)c4c3)c12 [Example 17, 7-ethoxy-1-(3-ethylpyrazolo[1,5-a]pyridin-5-yl)-1,3-dihydro-2H-imidazo[4,5-b]pyridin-2-one] | 100% |
| CCOc1ccnc2[nH]c(=O)n(-c3ccc4[nH]nc(C)c4c3)c12 [Example 18, 7-ethoxy-1-(3-methyl-1H-indazol-5-yl)-1,3-dihydro-2H-imidazo[4,5-b]pyridin-2-one] | 97% |
| CCOc1ccnc2[nH]c(=O)n(-c3ccc4nccc(C(N)=O)c4c3)c12 [Example 27, 6-(7-ethoxy-2-oxo-2,3-dihydro-1H-imidazo[4,5-b]pyridin-1-yl)quinoline-4-carboxamide] | 90% |
| CCOc1ccnc2[nH]c(=O)n(-c3ccc4ncnc(OC)c4c3)c12 [Example 39, 7-ethoxy-1-(4-methoxyquinazolin-6-yl)-1,3-dihydro-2H-imidazo[4,5-b]pyridin-2-one] | 102% |
| CCOc1ccnc2[nH]c(=O)n(-c3ccc4nccc(OC)c4c3)c12 [Example 41, 7-ethoxy-1-(4-methoxyquinolin-6-yl)-1,3-dihydro-2H-imidazo[4,5-b]pyridin-2-one] | 97% |
| CCOc1ccnc2[nH]c(=O)n(-c3ccc4nccc(OC)c4n3)c12 [Example 55, 7-ethoxy-1-(8-methoxy-1,5-naphthyridin-2-yl)-1,3-dihydro-2H-imidazo[4,5-b]pyridin-2-one] | 124% |
| CCOc1ccnc2[nH]c(=O)n(-c3ccc4nncc(OC)c4c3)c12 [Example 60, 7-ethoxy-1-(4-methoxycinnolin-6-yl)-1,3-dihydro-2H-imidazo[4,5-b]pyridin-2-one] | 101% |
| CCOc1ccnc2[nH]c(=O)n(-c3ccc4ncc5c(c4c3)OCCO5)c12 [Example 75, 1-(2,3-dihydro[1,4]-dioxino[2,3-c]quinolin-9-yl)-7-ethoxy-1,3-dihydro-2H-imidazo[4,5-b]pyridin-2-one] | 101% |
| CCOc1ccnc2[nH]c(=O)n(-c3ccc4nccc(N5CCNCC5)c4c3)c12 [Example 92, 7-ethoxy-1-(4-(piperazin-1-yl)quinolin-6-yl)-1,3-dihydro-2H-imidazo[4,5-b]pyridin-2-one] | 102% |
| CCOc1cnc2ccc(-n3c(=O)[nH]c4nccc(OCC)c43)cc2n1 [Example 93, 7-ethoxy-1-(3-ethoxyquinoxalin-6-yl)-1,3-dihydro-2H-imidazo[4,5-b]pyridin-2-one] | 94% |
| CCOc1ccnc2[nH]c(=O)n(-c3cc4c5c(cnc4cc3F)OCCO5)c12 [Example 94, 7-ethoxy-1-(8-fluoro-2,3-dihydro[1,4]dioxino[2,3-c]quinolin-9-yl)-1,3-dihydro-2H-imidazo[4,5-b]pyridin-2-one] | 101% |
| CCOc1ccnc2[nH]c(=O)n(-c3ccc4ncc(-c5cnn(C)c5)c(OC)c4c3)c12 [Example 177, 7-ethoxy-1-(4-methoxy-3-(1-methyl-1H-pyrazol-4-yl)quinolin-6-yl)-1,3-dihydro-2H-imidazo[4,5-b]pyridin-2-one] | 100% |
| CCOc1ccnc2[nH]c(=O)n(-c3ccc4ncc(-c5cn[nH]c5)c(OC)c4c3)c12 [Example 185, 7-ethoxy-1-(4-methoxy-3-(1H-pyrazol-4-yl)quinolin-6-yl)-1,3-dihydro-2H-imidazo[4,5-b]pyridin-2-one] | 101% |
| COc1cnnc2ccc(-n3c(=O)[nH]c4nccc(OC5CCC5)c43)cc12 [Example 204, 7-(cyclobutyloxy)-1-(4-methoxycinnolin-6-yl)-1,3-dihydro-2H-imidazo[4,5-b]pyridin-2-one] | 101% |
| CCOc1ccnc2[nH]c(=O)n(-c3ccc4ncc(F)c(OC)c4c3)c12 [Example 230, 7-ethoxy-1-(3-fluoro-4-methoxyquinolin-6-yl)-1,3-dihydro-2H-imidazo[4,5-b]pyridin-2-one] | 102% |

— US20170096422A1, “HETEROCYCLIC COMPOUND” (Takeda Pharmaceutical Company Limited, priority 2014, published 2017)
